According to patent US9796711B2, “Substituted pyrazolo[3,4-b]pyridin-6-carboxylic acids and method of use” (AbbVie S.àr.l., priority 2015, dated 2017):

Key:
[1] = target: T1, ΔF508-CFTR (Homo sapiens, UniProt P13569, DEL508-508); assay: CFTR cell surface levels using HRP-tagged ΔF508-CFTR expressing CFBE cells, in the presence of a co-corrector; type: cell-based; settings: HRP-tagged ΔF508-CFTR expressing CFBE cells, in the presence of 3 μM co-corrector; for EC50: read-out: EC50
T1 construct: host or cells: CFBE41o-, doxycycline-inducible
T1 sequence (P13569 with tags, fused parts or gaps DEL508-508): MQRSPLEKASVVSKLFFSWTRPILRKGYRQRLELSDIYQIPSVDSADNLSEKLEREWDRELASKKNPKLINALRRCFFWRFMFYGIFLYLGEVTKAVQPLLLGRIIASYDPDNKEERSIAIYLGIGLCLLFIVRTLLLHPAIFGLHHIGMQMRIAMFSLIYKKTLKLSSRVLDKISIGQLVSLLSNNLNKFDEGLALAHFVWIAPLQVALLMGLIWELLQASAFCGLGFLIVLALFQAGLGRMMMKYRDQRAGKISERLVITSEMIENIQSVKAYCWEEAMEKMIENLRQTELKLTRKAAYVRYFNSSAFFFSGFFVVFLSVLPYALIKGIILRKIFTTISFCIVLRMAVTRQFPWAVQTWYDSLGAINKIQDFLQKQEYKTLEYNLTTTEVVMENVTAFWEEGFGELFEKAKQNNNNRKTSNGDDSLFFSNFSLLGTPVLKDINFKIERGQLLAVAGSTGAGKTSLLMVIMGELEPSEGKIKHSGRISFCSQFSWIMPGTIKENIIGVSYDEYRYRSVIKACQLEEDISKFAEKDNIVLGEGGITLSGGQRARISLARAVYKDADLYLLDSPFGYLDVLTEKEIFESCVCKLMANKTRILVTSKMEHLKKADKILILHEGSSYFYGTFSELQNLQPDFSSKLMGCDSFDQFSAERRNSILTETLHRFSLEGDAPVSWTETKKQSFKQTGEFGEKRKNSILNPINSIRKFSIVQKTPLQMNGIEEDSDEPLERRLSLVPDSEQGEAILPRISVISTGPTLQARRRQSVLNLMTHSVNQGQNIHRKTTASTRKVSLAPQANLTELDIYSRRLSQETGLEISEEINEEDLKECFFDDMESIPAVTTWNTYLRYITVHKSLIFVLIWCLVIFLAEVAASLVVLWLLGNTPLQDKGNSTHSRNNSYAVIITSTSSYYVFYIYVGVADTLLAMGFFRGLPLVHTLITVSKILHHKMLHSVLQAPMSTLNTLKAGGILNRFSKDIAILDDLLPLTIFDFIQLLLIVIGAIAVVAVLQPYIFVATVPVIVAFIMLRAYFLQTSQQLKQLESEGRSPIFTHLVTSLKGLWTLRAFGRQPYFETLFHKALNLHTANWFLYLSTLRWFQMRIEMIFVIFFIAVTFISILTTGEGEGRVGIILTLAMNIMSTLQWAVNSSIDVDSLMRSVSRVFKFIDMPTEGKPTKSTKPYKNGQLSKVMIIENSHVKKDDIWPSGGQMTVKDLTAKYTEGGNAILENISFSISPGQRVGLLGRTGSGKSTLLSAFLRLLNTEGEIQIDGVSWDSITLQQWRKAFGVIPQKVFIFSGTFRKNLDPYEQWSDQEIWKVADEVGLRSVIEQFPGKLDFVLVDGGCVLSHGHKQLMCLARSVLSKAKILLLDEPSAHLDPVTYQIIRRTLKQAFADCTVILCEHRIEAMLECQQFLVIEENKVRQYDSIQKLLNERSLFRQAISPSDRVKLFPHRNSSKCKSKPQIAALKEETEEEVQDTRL
Outline: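 Cells were seeded with 0.5 μg/mL doxycycline and held 68 h at 37 °C. Test compounds plus 3 μM co-corrector (final 0.1% DMSO) were then added for 20 h at 33 °C. Washed cells received HRP substrate, and luminescence was normalized between DMSO and 3 μM co-corrector controls.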

[2] = target: T1, ΔF508-CFTR; assay: CFTR cell surface levels using HRP-tagged ΔF508-CFTR expressing CFBE cells, intrinsic corrector capacity; type: cell-based; settings: HRP-tagged ΔF508-CFTR expressing CFBE cells, intrinsic corrector capacity (no co-corrector), 33° C., 20 hours; for EC50: read-out: EC50
Outline: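 Here the cells express ΔF508-CFTR with horseradish peroxidase inserted in extracellular loop 4, so only rescued channel at the surface gives luminescent signal. Compounds act on their own, 20 h at the reduced temperature of 33 °C; values are percent activity relative to DMSO and a 3 μM corrector.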

## CCN(CC)C(=O)C1CCCN(c2cc(C(=O)O)nc3c2c(C2CCC2)nn3-c2ccccc2)C1 (centres unmarked) [compound 500, 3-cyclobutyl-4-[3-(diethylcarbamoyl)piperidin-1-yl]-1-phenyl-1H-pyrazolo[3,4-b]pyridine-6-carboxylic acid]
[1]
  % Activation: 289%
  EC50: 296 nM
[2]
  % Activation: 132.8%
  EC50: 467 nM

## O=C(O)c1cc(N2CCC(O)CC2)c2c(C3CCC3)nn(-c3ccccc3)c2n1 [compound 501, 3-cyclobutyl-4-(4-hydroxypiperidin-1-yl)-1-phenyl-1H-pyrazolo[3,4-b]pyridine-6-carboxylic acid]
[1]
  % Activation: 367.65%
  EC50: 353 nM
[2]
  % Activation: 152.7%
  EC50: 629 nM

## Cc1ncn(C)c(=O)c1CCN1CCN(c2cc(C(=O)O)nc3c2c(C2CCC2)nn3-c2ccccc2)CC1 [compound 502, 3-cyclobutyl-4-{4-[2-(1,4-dimethyl-6-oxo-1,6-dihydropyrimidin-5-yl)ethyl]piperazin-1-yl}-1-phenyl-1H-pyrazolo[3,4-b]pyridine-6-carboxylic acid]
[1]
  % Activation: 327%
  EC50: 1350 nM
[2]
  % Activation: 152%
  EC50: 3340 nM

## CN1C(=O)CO[C@@H]2CN(c3cc(C(=O)O)nc4c3c(C3CCC3)nn4-c3ccccc3)C[C@@H]21 [compound 503, 3-cyclobutyl-4-[(4aS,7aR)-4-methyl-3-oxohexahydropyrrolo[3,4-b][1,4]oxazin-6(2H)-yl]-1-phenyl-1H-pyrazolo[3,4-b]pyridine-6-carboxylic acid]
[1]
  % Activation: 220.8%
  EC50: 3190 nM
[2]
  % Activation: 65.78%
  EC50: 3340 nM

## O=C1CN(c2cc(C(=O)O)nc3c2c(C2CCC2)nn3-c2ccccc2)CCN1 [compound 504, 3-cyclobutyl-4-(3-oxopiperazin-1-yl)-1-phenyl-1H-pyrazolo[3,4-b]pyridine-6-carboxylic acid]
[1]
  % Activation: 138.9%
  EC50: > 10000 nM
[2]
  % Activation: 19.62%
  EC50: > 10000 nM

## O=C1CCC[C@H]2CN(c3cc(C(=O)O)nc4c3c(C3CCC3)nn4-c3ccccc3)C[C@H]2N1 [compound 505, 3-cyclobutyl-4-[(5aS,8aS)-2-oxooctahydropyrrolo[3,4-b]azepin-7(1H)-yl]-1-phenyl-1H-pyrazolo[3,4-b]pyridine-6-carboxylic acid]
[1]
  % Activation: 118.3%
  EC50: > 10000 nM
[2]
  % Activation: -6.616%
  EC50: > 10000 nM

## O=C(O)c1cc(N2CC(F)(F)C[C@@H]2CO)c2c(C3CCC3)nn(-c3ccccc3)c2n1 [compound 506, 3-cyclobutyl-4-[(2R)-4,4-difluoro-2-(hydroxymethyl)pyrrolidin-1-yl]-1-phenyl-1H-pyrazolo[3,4-b]pyridine-6-carboxylic acid]
[1]
  % Activation: 137.7%
  EC50: > 10000 nM
[2]
  % Activation: 40.12%
  EC50: 3340 nM

## O=C(O)c1cc(N2C[C@@H](F)C[C@H]2CO)c2c(C3CCC3)nn(-c3ccccc3)c2n1 [compound 507, 3-cyclobutyl-4-[(2S,4S)-4-fluoro-2-(hydroxymethyl)pyrrolidin-1-yl]-1-phenyl-1H-pyrazolo[3,4-b]pyridine-6-carboxylic acid]
[1]
  % Activation: 218.3%
  EC50: 2520 nM
[2]
  % Activation: 132.8%
  EC50: 2170 nM

## COCC1(F)CCN(c2cc(C(=O)O)nc3c2c(C2CCC2)nn3-c2ccccc2)C1 (centres unmarked) [compound 508, 3-cyclobutyl-4-[3-fluoro-3-(methoxymethyl)pyrrolidin-1-yl]-1-phenyl-1H-pyrazolo[3,4-b]pyridine-6-carboxylic acid]
[1]
  % Activation: 271.8%
  EC50: 451 nM
[2]
  % Activation: 104.6%
  EC50: 1110 nM

## O=C(O)c1cc(N2CC[C@H](O)[C@H](F)C2)c2c(C3CCC3)nn(-c3ccccc3)c2n1 [compound 509, 3-cyclobutyl-4-[(3R,4S)-3-fluoro-4-hydroxypiperidin-1-yl]-1-phenyl-1H-pyrazolo[3,4-b]pyridine-6-carboxylic acid]
[1]
  % Activation: 344.6%
  EC50: 1670 nM
[2]
  % Activation: 123.6%
  EC50: 1240 nM

## CCOCC1(F)CCN(c2cc(C(=O)O)nc3c2c(C2CCC2)nn3-c2ccccc2)C1 (centres unmarked) [compound 510, 3-cyclobutyl-4-[3-(ethoxymethyl)-3-fluoropyrrolidin-1-yl]-1-phenyl-1H-pyrazolo[3,4-b]pyridine-6-carboxylic acid]
[1]
  % Activation: 313.2%
  EC50: 397 nM
[2]
  % Activation: 99.8%
  EC50: 1110 nM

## CC1(CO)CN(c2cc(C(=O)O)nc3c2c(C2CCC2)nn3-c2ccccc2)C1 [compound 511, 3-cyclobutyl-4-[3-(hydroxymethyl)-3-methylazetidin-1-yl]-1-phenyl-1H-pyrazolo[3,4-b]pyridine-6-carboxylic acid]
[1]
  % Activation: 214.6%
  EC50: 1030 nM
[2]
  % Activation: 56.48%
  EC50: 3340 nM

## CO[C@H]1CCN(c2cc(C(=O)O)nc3c2c(C2CCC2)nn3-c2ccccc2)C1 [compound 512, 3-cyclobutyl-4-[(3S)-3-methoxypyrrolidin-1-yl]-1-phenyl-1H-pyrazolo[3,4-b]pyridine-6-carboxylic acid]
[1]
  % Activation: 286.4%
  EC50: 1420 nM
[2]
  % Activation: 103%
  EC50: 1170 nM

## O=C(O)c1cc(N2CC(OCC(F)F)C2)c2c(C3CCC3)nn(-c3ccccc3)c2n1 [compound 513, 3-cyclobutyl-4-[3-(2,2-difluoroethoxy)azetidin-1-yl]-1-phenyl-1H-pyrazolo[3,4-b]pyridine-6-carboxylic acid]
[1]
  % Activation: 349.6%
  EC50: 472 nM
[2]
  % Activation: 141.7%
  EC50: 371 nM

## O=C(O)c1cc(N2C[C@@H](F)C[C@@H]2CO)c2c(C3CCC3)nn(-c3ccccc3)c2n1 [compound 514, 3-cyclobutyl-4-[(2R,4S)-4-fluoro-2-(hydroxymethyl)pyrrolidin-1-yl]-1-phenyl-1H-pyrazolo[3,4-b]pyridine-6-carboxylic acid]
[1]
  % Activation: 178.2%
  EC50: 3330 nM
[2]
  % Activation: 37.34%
  EC50: 3340 nM

## O=C(O)c1cc(N2CCN3C[C@@H](F)C[C@H]3C2)c2c(C3CCC3)nn(-c3ccccc3)c2n1 [compound 515, 3-cyclobutyl-4-[(7S,8aS)-7-fluorohexahydropyrrolo[1,2-a]pyrazin-2(11/)-yl]-1-phenyl-1H-pyrazolo[3,4-b]pyridine-6-carboxylic acid]
[1]
  % Activation: 173.5%
  EC50: 3330 nM
[2]
  % Activation: 15.59%
  EC50: > 10000 nM

## CN1C(=O)CO[C@H]2CN(c3cc(C(=O)O)nc4c3c(C3CCC3)nn4-c3ccccc3)C[C@@H]21 [compound 516, 3-cyclobutyl-4-[(4aS,7aS)-4-methyl-3-oxohexahydropyrrolo[3,4-b][1,4]oxazin-6 (2H)-yl]-1-phenyl-1H-pyrazolo[3,4-b]pyridine-6-carboxylic acid]
[1]
  % Activation: 275.5%
  EC50: 723 nM
[2]
  % Activation: 123.4%
  EC50: 1110 nM

## O=C(O)c1cc(N2CCC(F)(CO)CC2)c2c(C3CCC3)nn(-c3ccccc3)c2n1 [compound 517, 3-cyclobutyl-4-[4-fluoro-4-(hydroxymethyl)piperidin-1-yl]-1-phenyl-1H-pyrazolo[3,4-b]pyridine-6-carboxylic acid]
[1]
  % Activation: 303.2%
  EC50: 575 nM
[2]
  % Activation: 82.63%
  EC50: 646 nM

## O=C(O)c1cc(N2CCC3(CCCO3)C2)c2c(C3CCC3)nn(-c3ccccc3)c2n1 (centres unmarked) [compound 518, 3-cyclobutyl-4-(1-oxa-7-azaspiro[4.4]nonan-7-yl)-1-phenyl-1H-pyrazolo[3,4-b]pyridine-6-carboxylic acid]
[1]
  % Activation: 237%
  EC50: 531 nM
[2]
  % Activation: 62.95%
  EC50: 371 nM

## CS(=O)(=O)NC1CCN(c2cc(C(=O)O)nc3c2c(C2CCC2)nn3-c2ccccc2)CC1 [compound 519, 3-cyclobutyl-4-{4-[(methanesulfonyl)amino]piperidin-1-yl}-1-phenyl-1H-pyrazolo[3,4-b]pyridine-6-carboxylic acid]
[1]
  % Activation: 340.6%
  EC50: 3330 nM
[2]
  % Activation: 149.3%
  EC50: 3340 nM

## O=C(O)c1cc(N2CCC(C(F)CO)CC2)c2c(C3CCC3)nn(-c3ccccc3)c2n1 (centres unmarked) [compound 520, 3-cyclobutyl-4-[4-(1-fluoro-2-hydroxyethyl)piperidin-1-yl]-1-phenyl-1H-pyrazolo[3,4-b]pyridine-6-carboxylic acid]
[1]
  % Activation: 450.25%
  EC50: 241 nM
[2]
  % Activation: 213.9%
  EC50: 583 nM

## COCC1(C)CN(c2cc(C(=O)O)nc3c2c(C2CCC2)nn3-c2ccccc2)C1 [compound 521, 3-cyclobutyl-4-[3-(methoxymethyl)-3-methylazetidin-1-yl]-1-phenyl-1H-pyrazolo[3,4-b]pyridine-6-carboxylic acid]
[1]
  % Activation: 216.55%
  EC50: 290 nM
[2]
  % Activation: 58.57%
  EC50: 488 nM

## CO[C@@H]1CCN(c2cc(C(=O)O)nc3c2c(C2CCC2)nn3-c2ccccc2)C1 [compound 522, 3-cyclobutyl-4-[(3R)-3-methoxypyrrolidin-1-yl]-1-phenyl-1H-pyrazolo[3,4-b]pyridine-6-carboxylic acid]
[1]
  % Activation: 294.1%
  EC50: 1080 nM
[2]
  % Activation: 114%
  EC50: 479 nM
